Laboratory results: patent publication US10869878B2, “Vaginal composition and use thereof” (SINGAPORE ZE&Z INTERNATIONAL PTE. LTD, priority 2014, dated 2020)

What was measured:
Type in all cases: cell-based
[1] = system: Gardnerella vaginalis in the secretions from BV patients; experiment: Selective promotion of carbohydrate containing gels for the growth of Gardnerella vaginalis (Experimental Example 4); settings: secretions from 20 BV patients; 1% (w/v) carbohydrate gel, 48 hrs slightly aerobic
Description: (§1) (3) After sampling, the vaginal secretion specimens from BV patients meeting the criteria of inclusion were immediately inoculated to the above 4 gels containing a carbohydrate, slightly aerobically incubated at 37° C. for 48 hrs, then transferred to a plate containing improved MRS with 1% (w/v) glucose and 5% (w/v) calf serum, slightly aerobically incubated for 20-48 hrs, isolated, purified and multiplied. The strain was identified by 16s rDNA sequencing.

[2] = system: Lactobacilli in the secretions from BV patients; experiment: Selective promotion of carbohydrate containing gels for the growth of Lactobacilli, 16s rDNA identification (Experimental Example 4); settings: secretions from 20 BV patients; 1% (w/v) carbohydrate gel, 48 hrs slightly aerobic
Description: as §1

Canidia albicans = experiment: Metabolization of carbohydrates by Canidia albicans, residual carbohydrate by HPLC (Experimental Example 5); settings: 72 hrs aerobic, 37° C., initial 1.5% (w/v) carbohydrate, pH 7.0, detection limit 0.05% (w/v)
Description: (1) Grouping in experiment:
(2) Test strain: 2 strains of Canidia albicans, isolated from patients with candidal vaginitis.
The supernatant was separated by centrifugation, and packed in a specification of 5 ml/tube. The carbohydrate content in each tube was detected by HPLC.

BV-associated bacteria [3] = experiment: Acid production by BV-associated bacteria in carbohydrate containing gels, slightly aerobic incubation (Experimental Example 1); settings: 1% (w/v) carbohydrate gel
From the text: (1) Grouping in experiment: • (1) Isomaltulose group: containing 1% (w/v) isomaltulose, MRS basal medium without carbohydrate, 5% (w/v) calf serum, and 0.5% (w/v) xanthan gum, pH5.4; • (2) Isomaltose group: containing 1% (w/v) isomaltose, MRS basal medium without carbohydrate, 5% (w/v) calf serum, and 0.5% (w/v) xanthan gum, pH5.4; • (3) Sucrose group: containing 1% (w/v) sucrose, MRS basal medium without carbohydrate, 5% (w/v) calf serum, and 0.5% (w/v) xanthan gum, pH5.4; and • (4) Maltose group: containing 1% (w/v) maltose, MRS basal medium without carbohydrate, 5% (w/v) calf serum, and 0.5% (w/v) xanthan gum, pH5.4.
The gel of each group was formulated essentially following the method described in Composition Example 1, then sterilized, added with calf serum, and packed in test tubes in a specification of 5 g/tube, for late use.
(§2) (2) Secretion specimens from BV patients: vaginal secretions from 5 BV patients; and the criteria of inclusion are: • (1) conforming to the Amsel clinical criteria of BV diagnosis, wherein the pH value of the vaginal secretions was >4.6; • (2) after smearing, Gram staining and microscopical examination of vaginal secretions, Nugent score ≥7; and • (3) no other vaginosis and no antimicrobial agent is used within two weeks.
(3) After sampling, the secretion specimens from BV patients meeting the criteria of inclusion were immediately inoculated to the above 4 gels containing a carbohydrate, and slightly aerobically incubated at 37° C. for 46 hrs. The pH values of the gel matrices are detected with a precise pH test paper respectively at 14 hrs, 36 hrs, and 46 hrs.

BV-associated bacteria [4] = experiment: Acid production by BV-associated bacteria in semi-solid agars containing a carbohydrate, anaerobic incubation (Experimental Example 2); settings: 24 hrs anaerobic, 37° C., 1.5% (w/v) carbohydrate, initial pH 5.4
From the text: (1) Grouping in experiment: • (1) Glucose group: containing 1.5% (w/v) glucose, MRS basal medium without carbohydrate, 5% (w/v) calf serum, and 0.45% (w/v) agar, pH5.4; • (2) Fructose group: containing 1.5% (w/v) fructose, MRS basal medium without carbohydrate, 5% (w/v) calf serum, and 0.45% (w/v) agar, pH5.4; • (3) Mannose group: containing 1.5% (w/v) mannose, MRS basal medium without carbohydrate, 5% (w/v) calf serum, and 0.45% (w/v) agar, pH5.4; • (4) Sucrose group: containing 1.5% (w/v) sucrose, MRS basal medium without carbohydrate, 5% (w/v) calf serum, and 0.45% (w/v) agar, pH5.4; • (5) Maltose group: containing 1.5% (w/v) maltose, MRS basal medium without carbohydrate, 5% (w/v) calf serum, and 0.45% (w/v) agar, pH5.4; • (6) Isomaltose group: containing 1.5% (w/v) isomaltose, MRS basal medium without carbohydrate, 5% (w/v) calf serum, and 0.45% (w/v) agar, pH5.4; and • (7) Isomaltulose group: containing 1.5% (w/v) isomaltulose, MRS basal medium without carbohydrate, 5% (w/v) calf serum, and 0.45% (w/v) agar, pH5.4.
The semi-solid agar of each group was formulated essentially following the method described in Composition Example 1, then sterilized, added with calf serum, and packed in test tubes in a specification of 5 g/tube, for late use.
as §2
(3) After sampling, the secretion specimens from BV patients meeting the criteria of inclusion were immediately inoculated to the above 7 aseptic semi-solid agars containing a carbohydrate at the bedside and anaerobically incubated at 37° C. for 24 hrs. The pH values of the agar matrices are detected with a precise pH test paper.

[5] = system: Bifidobacteria in the secretions from BV patients; experiment: Selective promotion of carbohydrate containing gels for the growth of Bifidobacteria (Experimental Example 4); settings: secretions from 20 BV patients; 1% (w/v) carbohydrate gel, 48 hrs slightly aerobic
Description: as §1

SMILES: OC[C@H]1O[C@@](CO)(O[C@H]2O[C@H](CO)[C@@H](O)[C@H](O)[C@H]2O)[C@@H](O)[C@@H]1O [Sucrose, sucrose]
- number of samples positive for Gardnerella vaginalis [1]: 3 (8, 15, 19)
- samples positive for Gardnerella vaginalis, In total [1]: 3
- samples positive for Lactobacilli, In total [2]: 9
- total number of samples positive for L. amylovorus incubation [2]: 1
- total number of samples positive for L. crispatus incubation [2]: 1
- total number of samples positive for L. gasseri incubation [2]: 2
- total number of samples positive for L. iners incubation [2]: 0
- total number of samples positive for L. jensenii incubation [2]: 4
- total number of samples positive for L. mucosae incubation [2]: 1
- residual carbohydrate content by HPLC (Canidia albicans; Canidia albicans 1): 1.04 g %
- residual carbohydrate content by HPLC (Canidia albicans; Canidia albicans 2): 0.95 g %
- pH of the gel (BV-associated bacteria [3]; Specimen 1, 0 hr (initial)): 5.4
- pH of the gel (BV-associated bacteria [3]; Specimen 1, 14 hrs, slightly aerobic, 37° C., initial pH 5.4): ≤3.8
- pH of the gel (BV-associated bacteria [3]; Specimen 1, 46 hrs, slightly aerobic, 37° C., initial pH 5.4): ≤3.8
- pH of the gel (BV-associated bacteria [3]; Specimen 2, 0 hr (initial)): 5.4
- pH of the gel (BV-associated bacteria [3]; Specimen 2, 14 hrs, slightly aerobic, 37° C., initial pH 5.4): 4.4
- pH of the gel (BV-associated bacteria [3]; Specimen 2, 46 hrs, slightly aerobic, 37° C., initial pH 5.4): ≤3.8
- pH of the gel (BV-associated bacteria [3]; Specimen 3, 0 hr (initial)): 5.4
- pH of the gel (BV-associated bacteria [3]; Specimen 3, 14 hrs, slightly aerobic, 37° C., initial pH 5.4): 4.8-5.1
- pH of the gel (BV-associated bacteria [3]; Specimen 3, 36 hrs, slightly aerobic, 37° C., initial pH 5.4): 4.4-4.6
- pH of the gel (BV-associated bacteria [3]; Specimen 4, 0 hr (initial)): 5.4
- pH of the gel (BV-associated bacteria [3]; Specimen 4, 14 hrs, slightly aerobic, 37° C., initial pH 5.4): 4.8-5.1
- pH of the gel (BV-associated bacteria [3]; Specimen 4, 36 hrs, slightly aerobic, 37° C., initial pH 5.4): ≤3.8
- pH of the gel (BV-associated bacteria [3]; Specimen 5, 0 hr (initial)): 5.4
- pH of the gel (BV-associated bacteria [3]; Specimen 5, 14 hrs, slightly aerobic, 37° C., initial pH 5.4): 4.4-4.6
- pH of the gel (BV-associated bacteria [3]; Specimen 5, 36 hrs, slightly aerobic, 37° C., initial pH 5.4): 4.4-4.6
- pH of the semi-solid agar (BV-associated bacteria [4]; Specimen 1): 4.1-4.4
- pH of the semi-solid agar (BV-associated bacteria [4]; Specimen 2): 3.8-4.1
- pH of the semi-solid agar (BV-associated bacteria [4]; Specimen 3): 3.8
- pH of the semi-solid agar (BV-associated bacteria [4]; Specimen 4): 4.1
- pH of the semi-solid agar (BV-associated bacteria [4]; Specimen 5): 3.8
- number of samples positive for Bifidobacterium bifidum [5]: 0
- number of samples positive for Bifidobacterium breve [5]: 0
- number of samples positive for Bifidobacterium dentium [5]: 0
- number of samples positive for Bifidobacterium longum [5]: 0
- samples positive for Bifidobacteria, In total [5]: 0
